According to PubChem BioAssay (NCI):
Values joined by “and” are separate entries in the source; they are usually repeats but may differ in a detail not shown here. Equal values may be shown once.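 In this assay, cells in 96-well plates receive the compound at five concentrations for 48 hours. Endpoints are linearly interpolated between the surrounding concentrations. GI50 is the concentration that inhibits growth by half. TGI: total growth inhibition.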

What was measured:
Assay in all cases: DTP human tumour cell line panel, 48 h
SK-MEL-2 melanoma = test system: SK-MEL-2 melanoma
T-47D breast = test system: T-47D breast
K-562 leukemia = test system: K-562 leukemia
M14 melanoma = test system: M14 melanoma
MALME-3M melanoma = test system: MALME-3M melanoma
HCT-15 colon = test system: HCT-15 colon
NCI/ADR-RES ovarian = test system: NCI/ADR-RES ovarian
HCT-116 colon = test system: HCT-116 colon
UO-31 renal = test system: UO-31 renal
SW-620 colon = test system: SW-620 colon

| Structure (SMILES) | GI50 (SK-MEL-2 melanoma) | TGI (SK-MEL-2 melanoma) | GI50 (T-47D breast) | TGI (T-47D breast) | GI50 (K-562 leukemia) | TGI (K-562 leukemia) | GI50 (M14 melanoma) | TGI (M14 melanoma) | GI50 (MALME-3M melanoma) | TGI (MALME-3M melanoma) | GI50 (HCT-15 colon) | TGI (HCT-15 colon) | GI50 (NCI/ADR-RES ovarian) | TGI (NCI/ADR-RES ovarian) | GI50 (HCT-116 colon) | TGI (HCT-116 colon) | GI50 (UO-31 renal) | TGI (UO-31 renal) | GI50 (SW-620 colon) | TGI (SW-620 colon) |
| --- | --- | --- | --- | --- | --- | --- | --- | --- | --- | --- | --- | --- | --- | --- | --- | --- | --- | --- | --- | --- |
| O=C1CC(c2ccsc2)c2snc(-c3ccc(Cl)cc3)c2N1 (configuration not stated) | 3.93 µM | > 100 µM | 0.537 µM | > 100 µM | 0.356 µM | > 100 µM | 0.804 µM | > 100 µM | 2.72 µM | > 100 µM | 0.489 µM | > 100 µM | 0.364 µM | 2.37 µM | 0.515 µM | > 100 µM | 3.86 µM | > 100 µM | 0.429 µM | > 100 µM |
| COc1ccc2c(c1)C(=O)c1c-2c(N2CCN(C(=O)CNCCN(C)C)CC2)nc2ccccc12 | 2.07 µM | 3.83 µM | 1.38 µM | 3.07 µM | 0.72 µM | > 100 µM | 1.88 µM | 3.52 µM | 1.96 µM | 4.94 µM | 2.3 µM | 5.44 µM | 4.28 µM | 19.9 µM | 1.22 µM | 2.7 µM | 1.38 µM | 2.78 µM | 1.27 µM | 2.53 µM |
| O=C(Nc1ccc(Oc2ccc(NC(=O)Nc3ccc([N+](=O)[O-])cc3)cc2)cc1)Nc1ccc([N+](=O)[O-])cc1 | 2.03 µM | 4.29 µM | 0.944 µM | 6.74 µM | 0.826 µM | – | 2.37 µM | 11.7 µM | 1.93 µM | 6.81 µM | 1.91 µM | 13.7 µM | 3.88 µM | > 91.3 µM | 1.17 µM | 9.19 µM | 0.516 µM | > 26.4 µM | 2.51 µM | > 56.3 µM |
| CC(C)=CC(=O)N[C@@H]1CC2CCC3C(CC[C@@]4(C)C3CC[C@@H]4C(C)N(C)C)[C@@]2(C)C[C@@H]1O (some centres not stated) | 14.4 µM | 38.2 µM | 1.94 µM | 31.2 µM | 0.849 µM | 8.49 µM | 1.86 µM | 3.69 µM | 2.91 µM | 9.41 µM | 1.39 µM | 5.01 µM | 7.05 µM | > 72.6 µM | 1.63 µM | 5.27 µM | 1.62 µM | 4.43 µM | 2.86 µM | 10.5 µM |
| CCOc1cc2c(=O)oc3c(OC)ccc4ccc(c1OC)c2c43 | – | > 100 µM | – | > 100 µM | – | > 100 µM | – | > 100 µM | – | > 100 µM | – | > 100 µM | – | > 100 µM | – | 20.4 µM | – | > 100 µM | – | > 100 µM |
| CCOC(=O)c1ccccc1SC(C[N+](=O)[O-])c1ccccc1 (configuration not stated) | 18.9 µM | 36.6 µM | 5.32 µM | 42.6 µM | 3.01 µM | 16 µM | 2.01 µM | 4.43 µM | 14.8 µM | 29.5 µM | 2.37 µM | 6.78 µM | 22.5 µM | 64.1 µM | 1.46 µM | 2.98 µM | 2.43 µM | 7.22 µM | 2.04 µM | 4.7 µM |
| CN(C)CC1CCCCCC(Br)C1=O (configuration not stated) | – | 54.4 µM | – | > 54.6 µM | – | > 100 µM | – | 37.5 µM | – | 17.6 µM | – | 25.4 µM | – | 37.8 µM | – | 5.1 µM | – | 26.6 µM | – | 12.7 µM |
| COc1cc2cnc(-c3ccccc3)cc2cc1OC | – | 54.6 µM | – | > 100 µM | – | 78.3 µM | – | > 100 µM | – | 60.4 µM | – | 46.5 µM | – | 73.6 µM | – | > 100 µM | – | > 100 µM | – | > 100 µM |
| CC#CC#C/C=C1\C=CC2(OC=CC2OC(C)=O)O1 (configuration not stated) | 90.2 µM and 28.9 µM | > 100 µM | – | 73.9 µM | – | > 100 µM and 54.8 µM | – | > 100 µM and 37.9 µM | – | > 100 µM and 69.8 µM | 16.4 µM and 4.78 µM | 30 µM and 27.8 µM | – | > 100 µM | 39.8 µM and 17.3 µM | > 100 µM and 33.1 µM | – | 30.8 µM and 36.2 µM | – | 65.9 µM and 39.7 µM |
| CC[C@H](C)[C@H](NC(=O)NC(C)(C)C)C(=O)N(C)[C@H](C[C@@H](OC(C)=O)c1nc(C(=O)N[C@@H](Cc2ccccc2)C[C@H](C)C(=O)OC)cs1)C(C)C | 0.405 µM | > 25 µM | > 19 µM | > 25 µM | 0.461 µM | > 25 µM | 0.476 µM | 2.08 µM | > 5.51 µM | > 25 µM | 0.686 µM | 6.95 µM | 1.79 µM | 24.9 µM | 0.417 µM | > 25 µM | 1.26 µM | > 25 µM | 0.646 µM | > 25 µM |
| Nc1nccc2c1ccn2-c1cccc(NC(=O)c2ccc(N3CCOCC3)c(C(F)(F)F)c2)c1 | 0.584 µM | 2.94 µM | 1.98 µM | 29.9 µM | 0.233 µM | > 39.4 µM | 0.788 µM | 7.6 µM | 0.634 µM | 16.7 µM | 0.443 µM | > 22.7 µM | 0.361 µM | > 10.2 µM | 0.677 µM | 8.66 µM | 1.2 µM | 14 µM | 0.49 µM | > 50 µM |
| Cc1cn([C@H]2C[C@H](O)[C@@H](CO)O2)c(=O)nc1N | – | > 100 µM | – | > 100 µM | – | > 100 µM | – | > 100 µM | – | > 100 µM | – | > 100 µM | – | > 100 µM | – | > 100 µM | – | > 100 µM | – | > 100 µM |
| O=C1NC(=O)[C@@H](c2c[nH]c3ccccc23)[C@@H]1c1c[nH]c2ccccc12 | > 25 µM | > 25 µM | > 25 µM | > 25 µM | > 25 µM | > 25 µM | > 25 µM | > 25 µM | > 21.8 µM | > 25 µM | > 25 µM | > 25 µM | > 25 µM | > 25 µM | > 25 µM | > 25 µM | > 16.4 µM | > 25 µM | > 25 µM | > 25 µM |
| CCOC(=O)Cn1c(-c2nonc2NC(=O)c2ccccc2F)nc2ccccc21 | 41.3 µM | > 85.5 µM | 44.1 µM | > 100 µM | 0.505 µM | > 100 µM | 74.1 µM | > 100 µM | 26.6 µM | > 87 µM | 0.109 µM | > 100 µM | 4.74 µM | > 100 µM | 0.434 µM | > 100 µM | 28.1 µM | > 100 µM | 1.4 µM | > 100 µM |
